Test results as given in US9180115B2, “Cyclohexylamines” (Asana Biosciences, LLC, priority 2011, dated 2015).

Test system: sodium channel response in hTRPV1-N1E115 cells
Experiment: FLIPR membrane potential assay of sodium channel response in hTRPV1-N1E115 cells with or without heat (47° C.) activation
Format: cell-based
Settings: for hTRPV1-N1E Nav 0.1 mM (% inhibition) 25° C. / hTRPV1-N1E Nav 1 mM (% inhibition) 25° C.: 25° C. (no heat activation); for hTRPV1-N1E Nav 0.1 mM (% inhibition) 47° C. / hTRPV1-N1E Nav 1 mM (% inhibition) 47° C.: 47° C. (heat activated); for IC50: read-out: hTRPV1-N1E IC50 (μM) 47° C.
Description: In one embodiment, a modified FLIPR® (Fluorometric Imaging Plate Reader) based assay system was developed which is capable of discriminating between non-specific versus hTRPV1-mediated entry of test compounds. Advantageously, the assay system utilizes heat activated opening of hTRPV1 channels followed by an assessment of internal sodium channel block. The assay allows a permanently charged compound to selectively enter through opened hTRPV1 channels and that compound's potency in inhibiting sodium channels from the cytoplasm side of the same cell can be assessed and quantified.
The test compounds are diluted in the Assay Buffer and added to each well of a specific 384-well ‘compound plate’, which serves as a source plate for compound addition using the FLIPR® platform. The concentration of compounds in the compound-plate was adjusted to achieve the desired final concentration when added to the cells in the ‘cell-plate’. After completion of the dye incubation period, the dye loaded cell-plates and the compound source plates are inserted into the FLIPR® Tetra device with a 384 FLIPR® tip box (Molecular Devices, Inc.) according to manufacturer's instructions. The compounds are robotically added to the dye loaded cell-plates using software integral to the FLIPR® Tetra instrument.
Immediately following compound addition, hTRPV1 is activated, in one of the duplicate cell plates, by heating. Specifically, entire multi-well plate containing the compound-cells mixture is incubated at 47° C. for 10 minutes, after which they are returned to room temperature (about 25° C.) for a further 30 minutes. Heat activation of hTRPV1 was omitted from the replicate cell plate which was simply maintained at room temperature for the entire 40 minutes.
A membrane potential response is elicited in the dye- and compound-loaded cells by the addition of veratridine which is a known sodium channel ‘agonist’. As illustrated in an example herein, an agonist plate containing veratridine (Sigma) is prepared in advance and is inserted into suitable devices such as, e.g., the FLIPR® TETRA device for a “2nd addition” as instructed by the manufacturer. The concentration of veratridine in the ‘agonist plate’ was adjusted to achieve a final concentration of 100 μM when added to the cells in the cell-plate. Final concentrations of veratridine greater or lesser than 100 μM may also be used but the signal measured by the FLIPR® TETRA device or another suitable device may vary accordingly.
The exposure of the cells in the cell-plate to veratridine induces sodium channels in the cells to open and the resulting ion flux produces a membrane potential depolarization that is detected as a fluorescence signal by the FLIPR® Tetra Device. The activity of test compounds is determined by their ability to attenuate the veratridine-induced fluorescence signal, the most promising compounds are those that show an enhanced activity in the heat-activated cell plate over the non-heat-activated cell plate. This differential activity reflects enhanced compound uptake via the heat activated and open hTRPV1 channels and rests on the fact that sodium channel block requires test compounds to act from the cytoplasmic side of the cell membrane.
In vitro assays were developed for assessing the inhibition of sodium channel response with compounds following stimulation by heat (47° C.) in cells expressing hTRPV1.
(v) Membrane potential Assay to Assess Sodium Channel Function in hTRPV1-Expressing Cells • Cells were plated at 5000 per 50 μL [DMEM+10% FBS+300 μg/mL H\hygromycin] per well, in a 384 clear bottom poly-D-lysine coated plate and incubated at 37° C. and 5% CO2 for 48 hours. On the day of the assay, media were discarded gently and 30 μL of the dye [FMP blue dye was prepared in assay buffer] per well was added and dye-loading was allowed to proceed for 20 min at room temperature. […]

SMILES | IC50 (47° C.) [µM] | hTRPV1-N1E Nav 0.1 mM (% inhibition) 25° C. | hTRPV1-N1E Nav 0.1 mM (% inhibition) 47° C. | hTRPV1-N1E Nav 1 mM (% inhibition) 25° C. | hTRPV1-N1E Nav 1 mM (% inhibition) 47° C. | hTRPV1-N1E Nav (% inhibition) 25° C., 0.5 mM (0.5 mM, 25° C.) | hTRPV1-N1E Nav (% inhibition) 47° C., 0.5 mM (0.5 mM, 47° C.) | hTRPV1-N1E Nav (% inhibition) 25° C., 5 mM (5 mM, 25° C.) | hTRPV1-N1E Nav (% inhibition) 47° C., 5 mM (5 mM, 47° C.)
CC(C[N+](C)(C)C1CCCCC1)OC(=O)c1cccc(C(C)C)c1.[I-] (stereo not shown) [Example 26, N-[2-((3-Isopropylbenzoyl)oxy)propyl]-N,N-dimethylcyclo-hexanaminium iodide] | 10 to 100 | 4 (N = 4) % | 88 (N = 4) % | 57 (N = 4) % | 89 (N = 4) % | – | – | – | –
CC[N+](CC)(CC(C)OC(=O)c1ccccc1)C1CCCCC1.[Cl-] (stereo not shown) [Example 3, N-[2-(benzoyloxy)propyl]-N,N-diethylcyclohexanaminium chloride] | – | – | – | – | – | 14 (N = 2, % | 19 (N = 2, % | 52 (N = 2, % | 67 (N = 2, %
CC(C[N+](C)(C)C1CCCCC1)OC(=O)c1ccc(Cl)cc1Cl.[I-] (stereo not shown) [Example 10, N-[2-((2,4-Dichlorobenzoyl)oxy)propyl]-N,N-dimethyl-cyclohexanaminium iodide] | 100 to 1000 | 10 (N = 4) % | 59 (N = 4) % | 61 (N = 4) % | 95 (N = 4) % | – | – | – | –
CC(C[N+](C)(C)C1CCCCC1)OC(=O)c1ccccc1F.[I-] (stereo not shown) [Example 8, N-[2-((2-Fluorobenzoyl)oxy)propyl]-N,N-dimethyl-cyclohexanaminium iodide] | – | 14 (N = 4) % | 38 (N = 4) % | 22 (N = 4) % | 53 (N = 4) % | – | – | – | –
Cc1cccc(C)c1C(=O)O[C@H](C)C[N+](C)(C)C1CCCCC1.[I-] [Example 24, (R)-N-[2-((2,6-Dimethylbenzoyl)oxy)propyl]-N,N-dimethyl-cyclohexanaminium iodide] | 10 to 100 | 22 (N = 4) % | – | 81 (N = 4) % | – | – | – | – | –
CC(C[N+](C)(C)C1CCCCC1)OC(=O)c1ccsc1.[I-] (stereo not shown) [Example 33, N,N-Dimethyl-N-[2-((thiophene-3-carbonyl)oxy)propyl] cyclohexanaminium iodide] | – | 3 (N = 4) % | 36 (N = 4) % | 23 (N = 4) % | 57 (N = 4) % | – | – | – | –
Cc1cc(C)c(C(=O)OC(C)C[N+](C)(C)C2CCOCC2)c(C)c1.[I-] (stereo not shown) [Example 28, N,N-Dimethyl-N-[2-((2,4,6-trimethylbenzoyl)oxy)propyl]tetrahydro-2H-pyran-4-aminium iodide] | – | 0 (N = 4) % | 32 (N = 4) % | 5 (N = 4) % | 58 (N = 4) % | – | – | – | –
Cc1cccc(C)c1C(=O)O[C@@H](C)C[N+](C)(C)C1CCCCC1.[I-] [Example 23, (S)-N-[2-((2,6-Dimethylbenzoyl)oxy)propyl]-N,N-dimethyl-cyclohexanaminium iodide] | 10 to 100 | 38 (N = 4) % | – | 76 (N = 4) % | – | – | – | – | –
CCc1ccccc1C(=O)OC(C)C[N+](C)(C)C1CCCCC1.[I-] (stereo not shown) [Example 44, N-[2-((2-Ethylbenzoyl)oxy)propyl]-N,N-dimethylcyclo-hexanaminium iodide] | – | 56 (N = 4) % | 89 (N = 4) % | 81 (N = 4) % | 96 (N = 4) % | – | – | – | –
CC(C[N+](C)(C)C1CCCCC1)OC(=O)c1ccccc1[N+](=O)[O-].[I-] (stereo not shown) [Example 18, N,N-Dimethyl-N-[2-((2-nitrobenzoyl)oxy)propyl] cyclohexanaminium iodide] | – | 3 (N = 4) % | 41 (N = 4) % | 28 (N = 4) % | 66 (N = 4) % | – | – | – | –
COc1cccc(OC)c1C(=O)OC(C)C[N+](C)(C)C1CCCCC1.[I-] (stereo not shown) [Example 7, N-[2-((2,6-Dimethoxybenzoyl)oxy)propyl]-N,N-dimethyl-cyclohexanaminium iodide] | – | 1 (N = 4) % | 28 (N = 4) % | 0 (N = 4) % | 70 (N = 4) % | – | – | – | –

Now from value to molecule, other results behind:

IC50 (47° C.) [µM] | SMILES | hTRPV1-N1E Nav 0.1 mM (% inhibition) 25° C. | hTRPV1-N1E Nav 0.1 mM (% inhibition) 47° C. | hTRPV1-N1E Nav 1 mM (% inhibition) 25° C. | hTRPV1-N1E Nav 1 mM (% inhibition) 47° C. | hTRPV1-N1E Nav (% inhibition) 25° C., 0.5 mM (0.5 mM, 25° C.) | hTRPV1-N1E Nav (% inhibition) 47° C., 0.5 mM (0.5 mM, 47° C.) | hTRPV1-N1E Nav (% inhibition) 25° C., 5 mM (5 mM, 25° C.) | hTRPV1-N1E Nav (% inhibition) 47° C., 5 mM (5 mM, 47° C.)
10 to 100 | Cc1ccc(C(=O)OC(C)C[N+](C)(C)C2CCCCC2)cc1.[I-] (stereo not shown) [Example 42, N,N-Dimethyl-N-[2-((4-methylbenzoyl)oxy)propyl] cyclohexanaminium iodide] | 8 (N = 4) % | 45 (N = 4) % | 16 (N = 4) % | 90 (N = 4) % | – | – | – | –
10 to 100 | CC(C)(C)c1ccc(C(=O)OCC[N+](C)(C)C2CCCCC2)cc1.[I-] [Example 43, N-[2-((4-(tert-butyl)benzoyl)oxy)ethyl]-N,N-dimethylcyclo-hexanaminium iodide] | 13 (N = 4) % | 78 (N = 4) % | – | – | – | – | – | –
10 to 100 | CCc1ccc(C(=O)OC(C)C[N+](C)(C)C2CCCCC2)cc1.[I-] (stereo not shown) [Example 20, N-[2-((4-Ethylbenzoyl)oxy)propyl]-N,N-dimethyl-cyclohexanaminium iodide] | 14 (N = 4) % | 77 (N = 4) % | 46 (N = 4) % | 95 (N = 4) % | – | – | – | –
10 to 100 | CC(C[N+](C)(C)C1CCCCC1)OC(=O)c1ccc(C(C)C)cc1.[I-] (stereo not shown) [Example 4, N-[2-((4-isopropylbenzoyl)oxy)propyl]-N,N-dimethylcyclohexanaminium iodide] | 24 (N = 4) % | 86 (N = 4) % | – | – | – | – | – | –
10 to 100 | Cc1cc(C)c(C(=O)O[C@@H](C)C[N+](C)(C)C2CCCCC2)c(C)c1.[I-] [Example 22, (S)-N,N-Dimethyl-N-[2-((2,4,6-trimethylbenzoyl)oxy)propyl] cyclohexanaminium iodide] | 33 (N = 4) % | – | 91 (N = 4) % | – | – | – | – | –
100 to 1000 | CC(C[N+](C)(C)C1CCCCC1)OC(=O)c1ccc(C(F)(F)F)cc1.[I-] (stereo not shown) [Example 21, N,N-Dimethyl-N-[2-((4-(trifluoromethyl)benzoyl)oxy)propyl] cyclohexanaminium iodide] | 11 (N = 4) % | 57 (N = 4) % | 35 (N = 4) % | 96 (N = 4) % | – | – | – | –
10 to 100 | CC(C[N+](C)(C)C1CCCCC1)OC(=O)c1cc2ccccc2s1.[I-] (stereo not shown) [Example 35, N-[2-((Benzo[b]thiophene-2-carbonyl)oxy)propyl]-N,N-dimethyl-cyclohexanaminium iodide] | 35 (N = 4) % | 74 (N = 4) % | – | – | – | – | – | –
10 to 100 | Cc1ccc(C(=O)OC(C)C[N+](C)(C)C2CCCCC2)c(C)c1.[I-] (stereo not shown) [Example 45, N-[2-((2,4-Dimethylbenzoyl)oxy)propyl]-N,N-dimethylcyclo-hexanaminium iodide] | 4 (N = 4) % | 72 (N = 4) % | 46 (N = 4) % | 83 (N = 4) % | – | – | – | –
